The structures appear in SMILES notation. Values joined by “and” are separate entries in the source; they are usually repeats but may differ in a detail not shown here. Equal values may be shown once.

Broadly, the IC50 is the midpoint of a concentration-inhibition curve. As usually defined, the melting point is the temperature of the solid-liquid transition. As a reminder, the viability is a per cent measure of how many cells are alive, often set against a control.

Data set [1] deals with nitric oxide synthase (NOS). In words: Kinetic study on inhibitory activity of NOS. The format is biochemical. Conditions: seven concentrations 1-10.0 μM; Figure 3; read-out: IC50 NOS inhibition (kinetic study). As to the method:
(§1) A nitric oxide synthase (NOS) assay was performed following the procedure recommended by the manufacturer as outlined in the screening kit (Catalogue No. EINO-100; EnzyChrom). Various concentrations (1, 2.5, 4.0, 5.5, 7.0, 8.5 and 10.0 µM) of the compounds 3i and the reference standard, DPI, were prepared. The enzyme solution (12.5 U/mL NOS, 10 uL), assay buffer (25 µL) and test samples (5 µL) were incubated at room temperature for 15 min. After pre-incubation, 10 µL of reaction mix was added and incubated at 37 °C for 60 min. A 200 µL quantity of NO detection reagent was added, the detection reaction was run at 37 °C for 60 min, and absorbance was determined at a wavelength of 540 nm using an Elisa plate reader (Varioskan Flash, ThermoFisher Scientific, Vantaa, Finland). The average of three readings was used to calculate the NOS percentage inhibition using the formula in Section 2.6.3

Data set [2] addresses superoxide dismutase (SOD). In words: Superoxide dismutase (SOD) inhibitory assay (SOD assay kit-WST). It is filed as biochemical. The following applies: duplicate; 1-50 µM; 25 °C, 30 min; read-out: IC50 SOD inhibition. As to the method:
The antioxidant activity of the compounds 3a, 3c, 3f, 3i, 3l, 3n and 3p against superoxide radicals was assessed via enzymatic assay in vitro using the SOD assay kit-WST according to the manufacturer’s instructions (Sigma-Aldrich®). The reaction mixtures in the SOD kit were combined with 20 μL of working solution of the samples in a 96-well plate. Plates were gently shaken and then incubated at 25 °C for 30 min. The reference positive control, diphenyleneiodonium (DPI), and the compounds were tested at 01, 5, 10, 25 and 50 µM in duplicates. The inhibition activity of SOD on the reaction of […] generated the superoxide with a tetrazolium salt, which was then determined by measuring the absorbance of the mixtures at a wavelength of 450 nm using an Elisa plate reader (Varioskan Flash, ThermoFisher Scientific, Vantaa, Finland). The SOD activity values obtained used to calculate the percentage of inhibition. % SOD activity=ODx− ODy/ODx ×100% where ODx is the absorbance of the blank (untreated SOD) and ODy is the absorbance of the sample (treated SOD). All tests were performed in duplicate.

Data set [3] concerns NOS of semipurified enzyme preparation or activated macrophage cytosol. Conditions: 30 min. incubation with 10 μM DPI at 37 °C; cited from earlier work.
Data set [4] concerns the target T1, α-Glucosidase type 1 from baker's yeast (Saccharomyces cerevisiae, UniProt P53341).
T1 construct: purchased Sigma Aldrich (Pty) Ltd. G5003
As to the kind of experiment: biochemical. The following applies: IC50 α-Glucosidase, mean ± SD, triplicate; tested at 1, 5, 10, 25, 50 µM.

A further data set concerns the target T2, human α-amylase (Homo sapiens, UniProt P04746).
T2 construct: purchased Abcam ab283391
T2 sequence (P04746 16-511): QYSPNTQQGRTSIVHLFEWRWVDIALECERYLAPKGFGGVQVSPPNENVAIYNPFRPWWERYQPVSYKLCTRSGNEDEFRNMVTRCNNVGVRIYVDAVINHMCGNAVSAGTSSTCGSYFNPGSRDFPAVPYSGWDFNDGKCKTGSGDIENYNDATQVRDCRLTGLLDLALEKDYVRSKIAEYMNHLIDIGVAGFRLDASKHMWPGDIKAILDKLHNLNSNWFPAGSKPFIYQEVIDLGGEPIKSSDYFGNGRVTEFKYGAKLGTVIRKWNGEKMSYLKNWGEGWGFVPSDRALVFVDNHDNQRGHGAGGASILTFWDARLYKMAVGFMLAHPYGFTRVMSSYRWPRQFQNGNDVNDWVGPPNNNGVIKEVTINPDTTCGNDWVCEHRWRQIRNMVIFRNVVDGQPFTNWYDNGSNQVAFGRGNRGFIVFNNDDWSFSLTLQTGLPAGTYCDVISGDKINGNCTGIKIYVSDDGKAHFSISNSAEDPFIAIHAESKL
As to the kind of experiment: α-amylase inhibitor screening kit assay. It is filed as biochemical. The following applies: mean ± SD, triplicate; tested at 1, 5, 10, 25, 50 µM. As to the method:
The α-amylase assay was performed in triplicate, using a 96-well plate following the procedure recommended by the manufacturer as outlined in the α-amylase inhibitor Screening Kit (Catalogue No. ab283391; Abcam). […] The average values obtained from the absorbance readings were used to determine the IC50 and standard deviation values in GraphPad prism from nonlinear regression dose–response curves.

Data set [5] can be described thus: DPPH radical scavenging assay. Conditions: mean ± SD; 45 min in the dark; 512 nm. In short, it runs like this: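 Compounds (0–50 µM, in DMSO) were mixed with 0.20 mM DPPH in methanol and kept in the dark for 45 min, with absorbance read at 512 nm. IC50 values were obtained by nonlinear regression of triplicate averaged readings.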
Background: The DPPH test is a chemical assay of radical scavenging.

The nature of data set [6]: NO free radical scavenging assay (sodium nitroprusside/Griess). The following applies: mean ± SD; sodium nitroprusside, Griess reagent, 550 nm. In short, it runs like this:
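Test compound incubated with 10 mM sodium nitroprusside (stock) in phosphate buffer for 2.5 h at 25 °C, then Griess reagent added for 30 min. Triplicate absorbance means used for IC50 by nonlinear dose–response regression.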
For orientation: Nitrite, measured by Griess reagent, commonly stands in for NO production.

The test system of data set [7] is NO generated from nitric oxide synthase (NOS). As to the kind of experiment: Inhibitory activity against NO generated from NOS (EnzyChrom kit). It is filed as biochemical. The following applies: mean ± SD, 1-50 µM. Here is the method: as §1, with “5, 10, 25” for “2.5, 4.0, 5.5, 7.0, 8.5”, “50” for “10.0”, “3a, 3c, 3f, 3i, 3l, 3n and 3p” for “3i”, “ascorbic acid,” for “DPI,”, “µL),” for “uL),”, “following formula: % Inhibition=1−ΔOD Test Compd/ΔOD No Inhibitor ×100%” for “formula in Section 2.6.3”
The IC50 values and standard deviation values were determined from nonlinear regression dose–response curve and compared with the results in GraphPad prism.

The test system of data set [8] is lung cancer (A549) cell line. In words: MTT cytotoxicity assay, A549. Conditions: for Cell viability percentage, A549: Table S3; for IC50: Homo sapiens, A549, read-out: IC50 A549. In general terms: Tetrazolium assays rely on reduction of a dye to a coloured formazan, in cell work by metabolically active cells.
Protocol: (§2) Cells were cultured in sterile Dulbecco’s Minimal Essential Medium (DMEM, Gibco) supplemented with 10% fetal bovine serum (FBS) and 1% penicillin-streptomycin solution. […] Cell counting was carried out using a handheld automated cell counter (Scapter 3.0™, Merck, Burlington, MA, USA) and seeded (1 × 10^4 cells/well) into a 96-well plate. After 24 h, the cells were treated with different concentrations (1, 5, 10, 25 and 50 µM) of the test compounds and reference standards prepared in DMEM. The MTT solution (20 μL) prepared in PBS (5 mg/mL) was added to all the wells, and the plates were incubated for 4 h, followed by 1 h incubation with 100 µL of dimethyl sulfoxide (DMSO) to dissolve the formazan crystals. Untreated cells and 5% DMSO were included in the experiment as negative controls. All experiments were performed in triplicate. The plates were read at 570 nm at a reference wavelength of 630 nm using an ELISA plate reader (Varioskan Flash, ThermoFisher Scientific, Vantaa, Finland). The percentage of cell viability was calculated using the following formula, Cell viability %=At/Ab×100 where At represents the absorbance value of test compound and Ab the absorbance value of the blank. […] The data were expressed as means ± SD.
Data set [9] relates to breast cancer (MCF-7) cell line. In words: MTT cytotoxicity assay, MCF-7. Conditions: for Cell viability percentage, MCF-7: Table S2; for IC50: Homo sapiens, MCF7, read-out: IC50 MCF-7.
A short description of data set [10]: MTT cytotoxicity assay, HEK293-T. Conditions: human, HEK293-T cells.
Protocol: as §2
The subject of data set [11] is human embryonic kidney (HEK293-T) cell line. As to the kind of experiment: MTT cytotoxicity assay, HEK293-T. Conditions: Homo sapiens, HEK-293T, read-out: IC50 Hek293-T.
Protocol: as §2

T1 sequence (P53341 whole entry): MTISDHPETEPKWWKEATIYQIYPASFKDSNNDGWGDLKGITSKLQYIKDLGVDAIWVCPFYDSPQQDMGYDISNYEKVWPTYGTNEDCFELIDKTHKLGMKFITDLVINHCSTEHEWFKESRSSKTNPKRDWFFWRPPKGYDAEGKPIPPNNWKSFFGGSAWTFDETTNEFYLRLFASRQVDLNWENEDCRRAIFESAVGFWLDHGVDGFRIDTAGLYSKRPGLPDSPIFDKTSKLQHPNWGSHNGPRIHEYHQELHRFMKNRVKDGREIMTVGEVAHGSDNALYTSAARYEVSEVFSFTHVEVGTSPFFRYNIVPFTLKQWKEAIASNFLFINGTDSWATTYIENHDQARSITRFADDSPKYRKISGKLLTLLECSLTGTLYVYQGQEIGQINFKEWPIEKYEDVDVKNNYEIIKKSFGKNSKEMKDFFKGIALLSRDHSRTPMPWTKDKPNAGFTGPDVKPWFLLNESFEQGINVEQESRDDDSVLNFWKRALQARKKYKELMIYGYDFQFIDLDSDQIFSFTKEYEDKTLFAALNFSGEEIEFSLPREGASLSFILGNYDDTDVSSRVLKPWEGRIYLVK

In the case of `c1ccc2c(c1)[I+]c1ccccc1-2` [DPI, diphenyleneiodonium chloride, reference compound], the figures for the concentration for half-maximal inhibition (IC50) in data set [1] and in data set [2] were 3 ± 0.007 µM and 0.71 ± 0.03 µM, respectively. In addition, in data set [3], the “NOS activity after incubation with inhibitor” value is given as “irreversibly inhibited”.

Turning to `CC1=[N+]([O-])C(c2ccc(F)cc2)Nc2ccc(I)cc21` (centres unmarked) [Compound 3f], the melting point is 180 to 182 °C. This compound also came in with an IC50 in data set [4] of 9.27 ± 0.02 µM. This compound came in with a half-inhibitory concentration (IC50) on human α-amylase of 0.64 ± 0.01 µM. The compound also had a half-maximal inhibitory concentration (IC50) in data set [5] of 23.66 ± 0.009 µM. Moreover, in data set [6], the IC50 turned out to be 6.74 ± 0.002 µM. The half-inhibitory concentration (IC50) in data set [7] is 4.7 ± 0.004 µM. Further, in data set [2], the 50% inhibitory concentration (IC50) was 11.59 ± 0.08 µM. The “Cell viability percentage, A549” value in data set [8] (Conc. 1 (µM per method)) was 82,3715%. Moreover, the “Cell viability percentage, A549” value in data set [8] (Conc. 5 (µM per method)) is 71,9204%. In addition, the “Cell viability percentage, A549” value in data set [8] (Conc. 10 (µM per method)) is 61,143%. In data set [8] (Conc. 25 (µM per method)), the “Cell viability percentage, A549” value is on record as 44,212%. In addition, the “Cell viability percentage, A549” value in data set [8] (Conc. 50 (µM per method)) is recorded as 32,7708%. Further, the half-maximal inhibitory concentration (IC50) in data set [8] is 13.71 ± 0.11 µM. For the same compound, the “Cell viability percentage, MCF-7” value in [9] (Conc. 1 (µM per method)) is 69,8879%. Besides, the “Cell viability percentage, MCF-7” value in data set [9] (Conc. 5 (µM per method)) was 62,4071%. Also, the “Cell viability percentage, MCF-7” value in data set [9] (Conc. 10 (µM per method)) is 44,9558%. Also, the “Cell viability percentage, MCF-7” value in data set [9] (Conc. 25 (µM per method)) is listed as 32,649%. For the same compound, the “Cell viability percentage, MCF-7” value in data set [9] (Conc. 50 (µM per method)) is given as 23,6814%. For the same compound, the IC50 in data set [9] was determined as 19.01 ± 0.04 µM. Moreover, in data set [10], the viability at 1 µM came out at 72%, the viability at 5 µM is 55.2%, the viability at 10 µM was 47.8% and the viability at 25 µM turned out to be 36.7%. Further, in [10], the viability at 50 µM came out at 14.7%. The IC50 in [11] was determined as 22.32 ± 0.08 µM.

Turning to `CC1=[N+]([O-])C(c2ccc(Cl)cc2)Nc2ccc(Br)cc21` (centres unmarked) [Compound 3c], the melting point fell in the range of 171 to 173 °C. In addition, the half-maximal inhibitory concentration (IC50) in data set [4] is 1.04 µM and 0.92 µM. The same compound gave an IC50 against human α-amylase of 30.48 ± 0.02 µM. This compound also came in with an IC50 in [5] of 33.52 ± 0.025 µM. The half-maximal inhibitory concentration (IC50) in data set [6] was 7.45 ± 0.002 µM. The IC50 in [7] was found to be 1.1 ± 0.003 µM. In data set [2], the 50% inhibitory concentration (IC50) came out at 4.6 ± 0.14 µM. Further, the “Cell viability percentage, A549” value in data set [8] (Conc. 1 (µM per method)) is listed as 73,4391%. The “Cell viability percentage, A549” value in [8] (Conc. 5 (µM per method)) was 66,5879%. In addition, in [8] (Conc. 10 (µM per method)), the “Cell viability percentage, A549” value was 54,3481%. The “Cell viability percentage, A549” value in data set [8] (Conc. 25 (µM per method)) is on record as 41,782%. Also, in [8] (Conc. 50 (µM per method)), the “Cell viability percentage, A549” value is listed as 29,5534%. In [8], the IC50 was determined as 15.26 ± 0.09 µM. In addition, in data set [9] (Conc. 1 (µM per method)), the “Cell viability percentage, MCF-7” value is recorded as 46,7898%. For the same compound, the “Cell viability percentage, MCF-7” value in [9] (Conc. 5 (µM per method)) is listed as 44,7938%. The “Cell viability percentage, MCF-7” value in data set [9] (Conc. 10 (µM per method)) is listed as 42,5981%. Besides, in data set [9] (Conc. 25 (µM per method)), the “Cell viability percentage, MCF-7” value is listed as 41,6999%. The “Cell viability percentage, MCF-7” value in [9] (Conc. 50 (µM per method)) is 37,2256%. Further, the IC50 in data set [9] worked out at 25.48 ± 0.08 µM. In [10], this compound yielded a viability at 1 µM of 64.7%, a viability at 5 µM of 62.9%, a viability at 10 µM of 50.3% and a viability at 25 µM of 34.2%. The compound further had a viability at 50 µM in data set [10] of 23.5%. Also, in [11], the IC50 is 27.54 ± 0.05 µM.

The record behind these values is article PMC10669220, “In Vitro α-Glucosidase and α-Amylase Inhibition, Cytotoxicity and Free Radical Scavenging Profiling of the 6-Halogeno and Mixed 6,8-Dihalogenated 2-Aryl-4-methyl-1,2-dihydroquinazoline 3-Oxides” (Antioxidants, 2023).
